Experiments:
[1] = tested on: Human breast cancer MDA-MB231 cells; type: in vivo, nude mice
Method: (§1) 1) Human breast cancer MDA-MB231 cells were purchased from American type culture collection (ATCC) and identified according the specification provided by ATCC. Cells were cultivated in Dulbecco's minimum essential medium (DMEM culture medium) containing 10% fetal bovine serum at 37° C. and 5% CO2. The cells were passaged for every three days and cells within the 15th passage were used.
2) Production of tumor. 5×10^6 MDA-MB231 cells were subcutaneously injected to the back of the nude mice. Mice were randomly grouped after the tumor reached at least 100 mm^3. Then treatment began and the day on which the treatment began was day 1.
3) Course of treatment. […] The drugs were administered once weekly for four weeks.
When R1 is 2-(2-Methoxyethoxy)Acetyl, and R3 is Ala, activation study and efficacy study were carried out by using compounds having different cleavable linker. The study methods are identical to those in Examples 10, 11 and 12. The in vitro activation efficiency was tested by asparagine endopeptidase and the tumor inhibition rate was tested by using human breast cancer MDA-MB231 model. […]

HEK293 cells = type: cell-based
Method: Toxicity detection method: a standard universal test program was used to perform the in vitro cytotoxicity test. 2500 HEK293 cells were cultured in a 96-well plate, and allowed to grow overnight. Cytotoxic compounds and their corresponding conjugated compounds were added into each well in different concentrations, cultivated with the cells at 37° C. for 72 hours, and then treated with MTT reagents. OD changes were read. The approximate multiples of the toxicity change were obtained by comparing the IC50 of the modified compounds to their corresponding cytotoxic compounds.

Human colon cancer HT-29 = experiment: Multiple tumor models in nude mice: HT-29; type: in vivo
Method: as §1, with “Corresponding tumor” for “Human breast cancer MDA-MB231”, “DMEM” for “Dulbecco's minimum essential medium (DMEM”, “solution” for “medium)”
(§2) 2) Production of tumor. 5×10^6 corresponding cells were subcutaneously injected to the back of the nude mice. Mice were randomly grouped after the tumor reached at least 100 mm^3. Then treatment began and the day on which the treatment began was day 1.
(§3) 3) Course of treatment. […] The control group was administered by physiological saline. Animals were administered once weekly for three weeks.
(§4) 3) Course of treatment. According to the clinical application of A1, A1 was administered in a dose of ⅙ MTD, i.v., 17.6 μmol/kg. The control group was administered by physiological saline. Animals were administered once weekly for three weeks.
(§5) 3) Course of treatment. According to the clinical application of B1, B1 was administered in a dose of ⅙ MTD, i.v., 17.6 μmol/kg. The control group was administered by physiological saline. Animals were administered once weekly for three weeks.
as §3, §3

[2] = tested on: Human renal cancer OS-RC-2; experiment: Multiple tumor models in nude mice: OS-RC-2; type: in vivo
Method: as §1, with “Corresponding tumor” for “Human breast cancer MDA-MB231”, “DMEM” for “Dulbecco's minimum essential medium (DMEM”, “solution” for “medium)”
as §2, §3, §4, §5, §3, §3

[3] = tested on: Human chronic leukemia K562; experiment: Multiple tumor models in nude mice: K562; type: in vivo
Method: as §1, with “Corresponding tumor” for “Human breast cancer MDA-MB231”, “DMEM” for “Dulbecco's minimum essential medium (DMEM”, “solution” for “medium)”
as §2, §3, §4, §5, §3, §3

[4] = Multiple tumor models in nude mice: HT1080; type: in vivo; settings: Human colon caner HT1080
Method: as §1, with “Corresponding tumor” for “Human breast cancer MDA-MB231”, “DMEM” for “Dulbecco's minimum essential medium (DMEM”, “solution” for “medium)”
as §2, §3, §4, §5, §3, §3

[5] = tested on: Human pancreatic cancer Panc-1; experiment: Multiple tumor models in nude mice: Panc-1; type: in vivo
Method: as §1, with “Corresponding tumor” for “Human breast cancer MDA-MB231”, “DMEM” for “Dulbecco's minimum essential medium (DMEM”, “solution” for “medium)”
as §2, §3, §4, §5, §3, §3

Human liver cancer Hepg2 = experiment: Multiple tumor models in nude mice: Hepg2; type: in vivo
Method: as §1, with “Corresponding tumor” for “Human breast cancer MDA-MB231”, “DMEM” for “Dulbecco's minimum essential medium (DMEM”, “solution” for “medium)”
as §2, §3, §4, §5, §3, §3

[6] = tested on: Human ovarian cancer SK-OV-3; experiment: Multiple tumor models in nude mice: SK-OV-3; type: in vivo
Method: as §1, with “Corresponding tumor” for “Human breast cancer MDA-MB231”, “DMEM” for “Dulbecco's minimum essential medium (DMEM”, “solution” for “medium)”
as §2, §3, §4, §5, §3, §3

[7] = tested on: Human breast cancer MDA-MB435; experiment: Multiple tumor models in nude mice: MDA-MB435; type: in vivo
Method: as §1, with “Corresponding tumor” for “Human breast cancer MDA-MB231”, “DMEM” for “Dulbecco's minimum essential medium (DMEM”, “solution” for “medium)”
as §2, §3, §4, §5, §3, §3

[8] = tested on: Human non-small cell lung cancer A549; experiment: Multiple tumor models in nude mice: A549; type: in vivo
Method: as §1, with “Corresponding tumor” for “Human breast cancer MDA-MB231”, “DMEM” for “Dulbecco's minimum essential medium (DMEM”, “solution” for “medium)”
as §2, §3, §4, §5, §3, §3

[9] = MDA-MB231, nude mice, IV 13.2 μmol/kg once weekly for four weeks, Day 10
[10] = S1′ i.v. 17.6 μmol/kg once weekly for three weeks
[11] = Table 29, i.v. 17.6 μmol/kg once weekly for three weeks
[12] = Table 41, i.v. 17.6 μmol/kg once weekly for three weeks

4-N—(N—(N—(N-(6-maleimido caproyl)-L-alanyl)-L-alanyl)-L-asparaginyl)-amino benzyl alcohol-MMAE-carbamate [Compound S6]
Inhibitory rate on tumor (%) Day 10 [1, 9]: 23% | Size of tumor (mm^3) Day 10 [1, 9]: 235.5 ± 56.3 mm^3 | Inhibitory rate on tumor (%) Day 24 ([1]; MDA-MB231, nude mice, IV 13.2 μmol/kg once weekly for four weeks, Day 24): 45.3% | Effect on tumor growth, in words ([1]; compared to control, camptothecin, capecitabine and daunorubicin groups): less efficacy | tumor inhibition rate (%) ([1]; human breast cancer MDA-MB231 model, different cleavable linkers): 45.4% | Cytoxicity reduced (Multiple) (HEK293 cells; HEK293, 72 hours, MTT, IC50 of modified compound compared to its corresponding cytotoxic compound, approximate multiples): 35 Multiple | Cytoxicity reduced (Multiples) (HEK293 cells; different cleavable linkers of MMAE and Doxorubicin): 35 Multiples

COCCOCC(=O)N[C@H](C)C(=O)N[C@H](C)C(=O)N[C@H](CC(N)=O)C(=O)Nc1ccc(COC(=O)OC(C(=O)OC2C[C@@]3(O)C(OC(=O)c4ccccc4)[C@@H]4C5(OC(C)=O)COC5C[C@H](O)[C@@]4(C)C(=O)[C@H](OC(C)=O)C(=C2C)C3(C)C)[C@@H](NC(=O)c2ccccc2)c2ccccc2)cc1 (stereo in doubt) [S1′, 2-(2-methoxyethoxy) acetylamino-L-Ala-L-Ala-L-Asn-p-amino-benzyl-paclitaxel]
inhibitory rate on tumor (Day 26) (Human colon cancer HT-29; [10]): 89.7% | inhibitory rate on tumor (Day 26) [2, 10]: 85.7% | inhibitory rate on tumor (Day 26) [3, 10]: 77.9% | inhibitory rate on tumor (Day 26) [4, 10]: 94.3% | inhibitory rate on tumor (Day 26) [5, 10]: 88.59% | inhibitory rate on tumor (Day 26) (Human liver cancer Hepg2; [10]): 84.3% | inhibitory rate on tumor (Day 26) [6, 10]: 85.6% | inhibitory rate on tumor (Day 26) [7, 10]: 90.7% | inhibitory rate on tumor (Day 26) [8, 10]: 94.6%

COCCOCC(=O)NCCCC[C@H](NC(=O)COCCOC)C(=O)N[C@H](C)C(=O)N[C@H](C)C(=O)N[C@H](CC(N)=O)C(=O)Nc1ccc(COC(=O)OC(C(=O)OC2C[C@@]3(O)[C@@H](OC(=O)c4ccccc4)[C@H]4[C@](C)(C(=O)[C@H](OC(C)=O)C(=C2C)C3(C)C)[C@@H](O)CC2OC[C@]24OC(C)=O)[C@@H](NC(=O)c2ccccc2)c2ccccc2)cc1 (stereo partly shown) [Compound A1]
inhibitory rate on tumor (Day 26) (Human colon cancer HT-29; [11]): 87.5% | inhibitory rate on tumor (Day 26) [2, 11]: 86.6% | inhibitory rate on tumor (Day 26) [3, 11]: 76.9% | inhibitory rate on tumor (Day 26) [4, 11]: 95.6% | inhibitory rate on tumor (Day 26) [5, 11]: 89.2% | inhibitory rate on tumor (Day 26) (Human liver cancer Hepg2; [11]): 85.4% | inhibitory rate on tumor (Day 26) [6, 11]: 84.4% | inhibitory rate on tumor (Day 26) [7, 11]: 91.2% | inhibitory rate on tumor (Day 26) [8, 11]: 95.3%

COCCOCC(=O)NCCCC[C@H](NC(=O)COCCOC)C(=O)N[C@H](C)C(=O)N[C@H](C)C(=O)N[C@H](CC(N)=O)C(=O)Nc1ccc(COC(=O)OC(C(=O)OC2C[C@@]3(O)[C@@H](OC(=O)c4ccccc4)[C@H]4[C@](C)(C(=O)[C@H](O)C(=C2C)C3(C)C)[C@@H](O)CC2OC[C@]24OC(C)=O)[C@@H](NC(=O)OC(C)(C)C)c2ccccc2)cc1 (stereo partly shown) [Compound B1]
inhibitory rate on tumor (Day 26) (Human colon cancer HT-29; [12]): 74.56% | inhibitory rate on tumor (Day 26) [2, 12]: 86.67% | inhibitory rate on tumor (Day 26) [3, 12]: 72.56% | inhibitory rate on tumor (Day 26) [4, 12]: 84.46% | inhibitory rate on tumor (Day 26) [5, 12]: 73.56% | inhibitory rate on tumor (Day 26) (Human liver cancer Hepg2; [12]): 81.56% | inhibitory rate on tumor (Day 26) [6, 12]: 74.67% | inhibitory rate on tumor (Day 26) [7, 12]: 78.84% | inhibitory rate on tumor (Day 26) [8, 12]: 74.56%
